Where two headings read alike, the source gives them in different places.
Legend:
Assay type in all cases: in vivo, human
[1] = Study 2: ascending repeated-dose pharmacokinetics in healthy volunteers; conditions: for AUC(0-t) / Cmax / Tmax / CL renal: both sexes, human, oral; for AUC(0-t) / Cmax / Tmax: plasma; for Tmax: read-out: tmax, median (range); for CL renal: urine and plasma
[2] = system: adult patients with Gaucher disease Type 3; test: Clinical study in GD-3 patients: safety and tolerability; conditions: 15 mg/day + imiglucerase
Procedure: During the study patients were evaluated for safety and tolerability, CSF and plasma biomarkers (glucosylceramide, GL-1; glucosylsphingosine, lyso-GL1), pharmacokinetics, markers for systemic disease (spleen and liver volume measured by magnetic resonance imaging (MRI), platelet count, hemoglobin levels), indicia of interstitial lung disease (high resolution pulmonary computed tomography (CT)), and horizontal saccadic eye movement.

[3] = system: adult patients with Gaucher disease Type 3; test: Clinical study in GD-3 patients: Scale for Assessment and Rating of Ataxia (SARA); conditions: 15 mg/day + imiglucerase
Procedure: The degree of ataxia at baseline and throughout the study was evaluated by the Scale for Assessment and Rating of Ataxia (SARA; Schmitz-Hübsch et al. [2006]), which assesses eight distinct attributes of cerebellar ataxia on a scale of 0-40. The eight attributes are gait, stance, sitting, speech disturbance, finger chase, nose-finger test, fast alternate hand movement, and heel-shin slide. SARA ataxia scoring results for all six patients is presented in the chart below: […]

For `CC(C)(NC(=O)O[C@@H]1CN2CCC1CC2)c1csc(-c2ccc(F)cc2)n1` [Compound 2, (S)-quinuclidin-3-yl 2-(2-(4-fluorophenyl)thiazol-4-yl)propan-2-ylcarbamate], which AUC(0-t) ([1]; 5 mg, healthy adults, 5 mg once daily, Day 14 (N = 9), read-out: AUC0-24, Geometric mean (CV)) is on record?
Its AUC(0-t) is 632 ng·h/mL.

What about the AUC(0-t) ([1]; 5 mg, healthy adults, 5 mg once daily, Day 14 (N = 9), read-out: AUC0-24, Mean (SD)) of the same compound?
The AUC(0-t) was 642 ng·h/mL.

And the Cmax ([1]; 5 mg, healthy adults, 5 mg once daily, Day 14 (N = 9), read-out: Cmax, Geometric mean (CV))?
Its Cmax is 36.5 ng/mL.

And the Cmax ([1]; 5 mg, healthy adults, 5 mg once daily, Day 14 (N = 9), read-out: Cmax, Mean (SD))?
The Cmax was 37 ng/mL.

What about the Tmax ([1]; 5 mg, healthy adults, 5 mg once daily, Day 14 (N = 9)) of the same compound?
The Tmax was 3 h.

And the AUC(0-t) ([1]; 10 mg, healthy adults, 10 mg once daily, Day 1 (N = 9), read-out: AUC0-24, Geometric mean (CV))?
Its AUC(0-t) is 623 ng·h/mL.

And the AUC(0-t) ([1]; 10 mg, healthy adults, 10 mg once daily, Day 1 (N = 9), read-out: AUC0-24, Mean (SD))?
Its AUC(0-t) is 635 ng·h/mL.

And the Cmax ([1]; 10 mg, healthy adults, 10 mg once daily, Day 1 (N = 9), read-out: Cmax, Geometric mean (CV))?
Its Cmax is 37.8 ng/mL.

And the Cmax ([1]; 10 mg, healthy adults, 10 mg once daily, Day 1 (N = 9), read-out: Cmax, Mean (SD))?
Its Cmax is 38.5 ng/mL.

And the Tmax ([1]; 10 mg, healthy adults, 10 mg once daily, Day 1 (N = 9))?
The Tmax was 3 h.

And the AUC(0-t) ([1]; 10 mg, healthy adults, 10 mg once daily, Day 14 (N = 9), read-out: AUC0-24, Geometric mean (CV))?
The AUC(0-t) was 1490 ng·h/mL.

What about the AUC(0-t) ([1]; 10 mg, healthy adults, 10 mg once daily, Day 14 (N = 9), read-out: AUC0-24, Mean (SD)) of the same compound?
The AUC(0-t) was 1550 ng·h/mL.

And the Cmax ([1]; 10 mg, healthy adults, 10 mg once daily, Day 14 (N = 9), read-out: Cmax, Geometric mean (CV))?
The Cmax was 86 ng/mL.

And the Cmax ([1]; 10 mg, healthy adults, 10 mg once daily, Day 14 (N = 9), read-out: Cmax, Mean (SD))?
The Cmax was 89.7 ng/mL.

And the Tmax ([1]; 10 mg, healthy adults, 10 mg once daily, Day 14 (N = 9))?
The Tmax was 2 h.

And the AUC(0-t) ([1]; 20 mg, healthy adults, 20 mg once daily, Day 1 (N = 9), read-out: AUC0-24, Geometric mean (CV))?
The AUC(0-t) was 1080 ng·h/mL.

And the AUC(0-t) ([1]; 20 mg, healthy adults, 20 mg once daily, Day 1 (N = 9), read-out: AUC0-24, Mean (SD))?
Its AUC(0-t) is 1100 ng·h/mL.

What about the Cmax ([1]; 20 mg, healthy adults, 20 mg once daily, Day 1 (N = 9), read-out: Cmax, Geometric mean (CV)) of the same compound?
The Cmax was 66.5 ng/mL.

What about the Cmax ([1]; 20 mg, healthy adults, 20 mg once daily, Day 1 (N = 9), read-out: Cmax, Mean (SD)) of the same compound?
Its Cmax is 68 ng/mL.

What about the Tmax ([1]; 20 mg, healthy adults, 20 mg once daily, Day 1 (N = 9)) of the same compound?
The Tmax was 3.07 h.

And the AUC(0-t) ([1]; 20 mg, healthy adults, 20 mg once daily, Day 14 (N = 9), read-out: AUC0-24, Geometric mean (CV))?
The AUC(0-t) was 2340 ng·h/mL.

What about the AUC(0-t) ([1]; 20 mg, healthy adults, 20 mg once daily, Day 14 (N = 9), read-out: AUC0-24, Mean (SD)) of the same compound?
The AUC(0-t) was 2420 ng·h/mL.

What about the Cmax ([1]; 20 mg, healthy adults, 20 mg once daily, Day 14 (N = 9), read-out: Cmax, Geometric mean (CV)) of the same compound?
Its Cmax is 137 ng/mL.

And the Cmax ([1]; 20 mg, healthy adults, 20 mg once daily, Day 14 (N = 9), read-out: Cmax, Mean (SD))?
The Cmax was 142 ng/mL.

And the Tmax ([1]; 20 mg, healthy adults, 20 mg once daily, Day 14 (N = 9))?
Its Tmax is 3 h.

And the CL renal ([1]; 5 mg, healthy adults, 5 mg once daily, Day 14 (N = 9), read-out: CLR(0-24), Mean (SD) (converted))?
Its CL renal is 25.8 mL/min.

And the CL renal ([1]; 10 mg, healthy adults, 10 mg once daily, Day 14 (N = 9), read-out: CLR(0-24), Geometric mean (CV) (converted))?
The CL renal was 23.3 mL/min.

What about the CL renal ([1]; 10 mg, healthy adults, 10 mg once daily, Day 14 (N = 9), read-out: CLR(0-24), Mean (SD) (converted)) of the same compound?
Its CL renal is 24.8 mL/min.

What about the CL renal ([1]; 20 mg, healthy adults, 20 mg once daily, Day 14 (N = 9), read-out: CLR(0-24), Geometric mean (CV) (converted)) of the same compound?
The CL renal was 33.3 mL/min.

And the CL renal ([1]; 20 mg, healthy adults, 20 mg once daily, Day 14 (N = 9), read-out: CLR(0-24), Mean (SD) (converted))?
The CL renal was 34.5 mL/min.

And the “CLss/F, Geometric mean (CV)” value ([1]; healthy adults, 5 mg once daily, Day 14 (N = 9))?
The value was 5.9 (19.5) L/h.

What about the “CLss/F, Geometric mean (CV)” value ([1]; healthy adults, 10 mg once daily, Day 14 (N = 9)) of the same compound?
The value was 5.0 (24.4) L/h.

And the “CLss/F, Geometric mean (CV)” value ([1]; healthy adults, 20 mg once daily, Day 14 (N = 9))?
The value was 6.4 (25.8) L/h.

And the “Ctrough values over time” value ([1]; healthy adults, 5, 10, or 20 mg once daily for 14 days)?
Its value is “reached a plateau after Day 5”.

What about the “Time to steady state” value ([1]; healthy adults, repeated once-daily doses from 5-20 mg) of the same compound?
The value was no more than 5 days.

What about the Treatment-emergent adverse events ([2]; 26 weeks, all 5 patients) of the same compound?
Its Treatment-emergent adverse events is “no serious or lasting treatment-emergent adverse events”.

And the “Severity and relatedness of treatment-emergent adverse events” value ([2]; 52 weeks, six patients)?
The value was “mild or moderate in severity, and none of which were considered related to treatment with Compound 2 or imiglucerase”.

And the “Total treatment-emergent adverse events reported” value ([2]; 52 weeks, six patients)?
The value was 30.

And the “Patients showing improvements in ataxia” value ([3]; 52 weeks)?
The value was 5 of 6.

And the “Patients exhibiting an improvement in ataxia, excluding Patient 5” value ([3]; Week 52)?
Its value is 4 out of 5.

What about the “Mean improvement in SARA score, excluding Patient 5” value ([3]; Week 52, SD=3.2) of the same compound?
Its value is −0.9.

Reference: patent US20220016092A1, “METHODS FOR TREATING SYMPTOMS AND DISORDERS ASSOCIATED WITH LYSOSOMAL STORAGE DISEASES” (GENZYME CORPORATION, priority 2019, published 2022)
